Experimental data published in US20220362182A1, “METHODS FOR REVERSING HEPATIC STEATOSIS” (BRIGHTSEED, INC., priority 2020, published 2022).
Entries after “also recorded” stand apart in the source; their conditions may differ.

How the values were obtained:
estrogenic activity = assay: assay for estrogenic activity; type: cell-based; conditions: false-positive counter assay
INS mRNA = assay: insulin mRNA qPCR in T6PNE cells; type: cell-based, human
Experimental: Quantitative PCR (Q-PCR) from in vitro cell culture experiments used total RNA purified using RNeasy Kits (Qiagen). For liver tissue samples, total RNA was isolated using Trizol (Invitrogen) and prepared for RNAseq (mouse liver DMSO and NCT, N=3). cDNA was amplified using 3 μg of total RNA using qScript cDNA SuperMix (Quanta BioSciences, Beverly, Mass., USA). QPCR analysis was performed using SYBR® Select Master Mix (Applied Biosystems) and ABI 7900HT (Applied Biosystems, Thermo Fisher Scientific). The Ct values of mRNA expression were then normalized to the 18 s rRNA values and are expressed as fold change over samples from mice fed normal chow for in vivo experiments or DMSO controls for cell culture experiments.

T6PNE cells = assay: fat clearance assay in palmitate-treated T6PNE cells (Oil Red O, Nile Red, triglyceride); type: cell-based, human; conditions: 0.25 mM palmitate for 2 days; for cellular triglyceride (TG) level: 10 μM
Experimental: Oil red O and Nile Red staining were used to measure lipid accumulation. Oil Red O staining was done as known in the art. Briefly, fixed cells were incubated with Oil Red O solution (Poly Scientific) for 3 h, followed by photomicrography (Olympus, IX71). For Nile Red staining, dye (1: 500 in PBS from 1 mg/ml in ethanol stock, Sigma) was added for 30 mins and DAPI added for 10 mins at room temperature. Quantification of Nile Red staining was done with a Celigo imaging cytometer (Nexcelom Bioscience). More than 4000 cells were analyzed for each quantification. The number of Nile Redpositive cells was normalized to the DAPI-positive cell number for each well and fold change was calculated relative to a DMSO control well.
Palmitate (150 mM) (Sigma-Aldrich) was prepared in 50% ethanol and precomplexed with 15% fatty acid-free BSA (Research Organics, Cleveland, Ohio, USA) in a 37 C water shaker. BSA-precomplexed palmitate was used as a 12 mM stock solution for all assays with a final concentration of 0.25 mM palmitate in cell culture medium.
siRNAs were purchased from Ambion. For transfections, 24 μL of each siRNA (1 μM stock) was mixed with 90 μL of a 1:100 dilution of Lipofectamine RNAi MAX (Invitrogen, Waltham, Mass., USA) in Opti-MEM. Transfection was done in 24 well plates (Thermo Fisher Scientific, Waltham, Mass., USA), by incubation with cells for 30 min. at room temperature. One day after transfection, cells were transferred to 96 well plates (2000 cells per well) and incubated at 37° C. for an additional day. Forty-eight hours after transfection, either palmitate-BSA complex or BSA control plus or minus compounds was added for 2 days. For validation of siRNAs, transfected cells were harvested for RNA purification and QPCR for each gene 2 days after transfection.
The bicinchoninic acid (BCA) protein assay kit assay (Thermo scientific) was used to measure protein amount for DART, Western blotting and TG assays. Absorbance at 550 nm was determined using a plate reader.

HNF4α [1] = target: T1, HNF4α (Homo sapiens, UniProt P41235); assay: T6PNE insulin promoter assay (human insulin promoter-GFP transgene); type: cell-based; parameters: endogenous in cells; host or cells: T6PNE cells; conditions: T6PNE cells; for insulin promoter activity / HNF4α activation: GFP-positive cells relative to DMSO; for dose responsiveness in the INS promoter assay: multiple doses
T1 sequence (P41235 1-474): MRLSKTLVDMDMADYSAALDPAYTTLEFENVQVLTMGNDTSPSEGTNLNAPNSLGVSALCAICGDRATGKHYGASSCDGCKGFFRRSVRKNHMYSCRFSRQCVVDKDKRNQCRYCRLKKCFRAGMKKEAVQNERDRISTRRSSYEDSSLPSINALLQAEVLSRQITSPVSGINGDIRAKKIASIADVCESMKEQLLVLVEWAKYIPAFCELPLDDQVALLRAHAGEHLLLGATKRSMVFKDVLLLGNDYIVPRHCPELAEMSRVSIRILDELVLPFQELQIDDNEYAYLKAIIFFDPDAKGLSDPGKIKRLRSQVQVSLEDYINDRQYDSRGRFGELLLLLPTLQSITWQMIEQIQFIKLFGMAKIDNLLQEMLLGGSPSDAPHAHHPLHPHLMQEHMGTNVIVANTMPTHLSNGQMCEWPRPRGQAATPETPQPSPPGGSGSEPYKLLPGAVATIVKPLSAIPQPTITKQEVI
Experimental: The T6PNE insulin promoter assay has been described previously and was performed here with slight modifications as follows: T6PNE cells were seeded at 200 cells per well in 384-well tissue culture plates (Greiner Bio-One) in the presence of 0.5 μM tamoxifen. Compounds described herein in DMSO were dispensed with an Echo 555 Acoustic Liquid Handler (Beckman Coulter). Three days after compound addition, cells were fixed in 4% paraformaldehyde (USBio) for 15 min and stained with DAPI (0.167 μg/ml, Invitrogen). Blue (DAPI) and green (GFP) channels were imaged using a Celigo imaging cytometer (Nexcelom Bioscience). The number of GFPpositive cells was normalized to the DAPI-positive cell number and fold change calculated relative to the DMSO control.
T6PNE cells were maintained in RPMI (5.5mM glucose, Corning) supplemented with 10% fetal bovine serum (FBS, Sigma-Aldrich) and 1% penicillin-streptomycin (pen-strep, Gibco). Cells were maintained in 5% CO2 at 37° C. For the insulin promoter assay, 0.5 μM tamoxifen (Sigma-Aldrich) was added to T6PNE cell culture media. HepG2 or HeLa cells were cultured in DMEM (high glucose, Corning) supplemented with 10% FBS and 1% pen-strep and maintained at 5% CO2, 37° C.

HNF4α [2] = target: T1, HNF4α; assay: DARTS assay (HNF4α protease sensitivity) in HepG2 cells; type: binding; parameters: Total cell protein was extracted; endogenous in cells; host or cells: HepG2 cells; conditions: 40 or 80 μM for 16 h, subtilisin
Experimental: DARTS assays were conducted as described in the art. HepG2 cells were treated with DMSO, BI6015, NCT, NFT at a concentration of 40 or 80 μM for 16 hr. Total cell protein was extracted and measured by BCA protein assay (Thermo Scientific). Each sample was split into two aliquots for proteolysis without (−) or with (+) Subtilisin (Sigma-Aldrich). Forty […] of cell lysate was incubated with or without protease (40 ng/ml subtilisin) for 35 min at room temperature.
Whole-cell extracts were prepared by incubation in RIPA buffer (Invitrogen) containing protease inhibitors (Calbiochem, San Diego, Calif.). Protein ([…]) was separated on 12% or 16% Tri-Glycine gels (Invitrogen) and transferred to Immobilon P membrane (0.2 μm pore, Millipore). After 1 h in phosphate-buffered saline-Tween (PBST) with 3% milk, membrane was incubated with antibodies to HNF4α (mouse, Novus, 1:1000), LC3B (rabbit, Novus, 1:500), p62 (SQSTM1, mouse, Santa Cruz, 1:1000) or β-actin (mouse, Santa Cruz, 1:2000), followed by secondary antibody conjugated to horseradish peroxidase (1:5000, Jackson Immune).

SMILES: COc1cc(/C=C/C(=O)NCCc2ccc(O)cc2)ccc1O [NFT, N-trans feruloyltyramine]
- estrogenic activity (estrogenic activity): no estrogenic
- INS mRNA (INS mRNA): increased
- fat clearance (stored fat by Oil Red O and Nile Red staining) (T6PNE cells): less stored fat than control cells; also recorded: induced fat clearance from palmitate-loaded cells
- cellular triglyceride (TG) level (T6PNE cells): produced the same result as the Nile Red staining
- insulin promoter activity / HNF4α activation (HNF4α [1]): more potent activators; also recorded: approximately as active as alverine; also recorded: much more potent
- dose responsiveness in the INS promoter assay (HNF4α [1]): exhibited dose responsiveness
- HNF4α proteolytic sensitivity / conformational change (HNF4α [2]): induced a change in HNF4α proteolytic sensitivity

SMILES: O=C(/C=C/c1ccc(O)c(O)c1)NCCc1ccc(O)cc1 [NCT, N-trans-caffeoyltyramine]
- estrogenic activity (estrogenic activity): no estrogenic
- INS mRNA (INS mRNA): increased
- fat clearance (stored fat by Oil Red O and Nile Red staining) (T6PNE cells): less stored fat than control cells; also recorded: induced fat clearance from palmitate-loaded cells
- cellular triglyceride (TG) level (T6PNE cells): produced the same result as the Nile Red staining
- insulin promoter activity / HNF4α activation (HNF4α [1]): more potent activators; also recorded: strongest inducer of insulin promoter activity; also recorded: much more potent
- dose responsiveness in the INS promoter assay (HNF4α [1]): exhibited dose responsiveness
- HNF4α proteolytic sensitivity / conformational change (HNF4α [2]): induced a change in HNF4α proteolytic sensitivity
